Test results reported in patent US20220202739A1, “ENDOCANNABINOID MIMETIC AND ANTI-INFLAMMATORY COMPOUND CONTAINING COMPOSITIONS, METHODS OF PREPARATION AND USES THEREOF” (priority 2019, published 2022).
Where two headings read alike, the source gives them in different places.

Test system: CNR2
Assay: Gene expression custom microarray, human skin fibroblasts (Example 1): CNR2
Assay type: cell-based
Conditions: for fold induction at 10 µM: Skin fibroblast, read-out: CNR2↑ gene expression, fold increase or decrease vs untreated cells
Excerpt: Cell cultures: A human skin fibroblast cell culture (or cultures) was obtained through the Coriell Cell Repository from the National Institute on Aging Cell Repository (Camden, N.J.), or Promocell GmbH (Heidelberg, Germany). The initial culture was selected from the following cell lines: AG13066, AG11557, AG11796 or GM03651E. The cell lines were derived from donors as follows:
Experimental phase: When the appropriate quantity of cells had been grown, they were detached as described above, but at the final step were seeded into each well of one or more 6 well dishes. Each well received 2 ml of the cell suspension so they were seeded equally. The dishes were returned to the incubator until 85-95% confluency was reached.
It is at this stage that all wells were rinsed in PBS after aspirating the growth media. The compound(s) to be tested were previously mixed into a suitable solvent (e.g., DMSO or ethanol) that can be diluted to the desired concentration of test compound (10 μl) in the culture wells without exceeding maximum solvent concentrations and adversely effecting cell viability, and mixed with basal media. NOTE: Standard maximum levels of solvent are 0.1% for DMSO and 0.5% for ETOH. The concentration of each test compound is found in Tables 1 & 2.
Every 2 wells on the 6 well plate served as a biological replicate for the purposes of RNA isolation and genetic expression evaluations making each 6 well dish an n=3 for the test compound(s) contained in the media. Negative control plates (no test compound(s) and only basal media) were also generated. The plates were returned to the incubator for 24 hrs.
At the end of the 24 hr time period, the plates were removed from the incubator, the test media aspirated, and the cells rinsed with PBS. RNA isolation is performed using the BioRad Aurum Total RNA Mini Kit (Hercules, Calif.) per manufacturer's protocol; which is described, in brief, below: • Add 350 μl of lysis buffer to each well. Pipet multiple times to ensure thorough lysis. Add lysed cells to the collection tube. • Add 350 μl of 70% ETOH to the collection tube and mix thoroughly. • Pipet the generated lysate onto the spin column placed in a new 2 ml tube. Centrifuge for 30 sec between 8,000 and 10,000 g. • Place the spin column containing the now bound RNA, in a new 2 ml tube. Add 700 μl of low stringency wash solution to the spin column. Centrifuge for 30 sec between 8,000 and 10,000 g. Discard the flow through and replace spin column. • Add 80 μl of DNase I dilution to the spin column and incubate at room temperature for 15 minutes. • Add 700 μl of high stringency wash solution to the column and centrifuge for 30 sec between 8,000 and 10,000 g. Discard flow through. • Add 700 μl of low stringency wash solution to the column and centrifuge for 60 sec between 8,000 and 10,000 g. Discard flow through. • Centrifuge for 2 minutes to remove residual wash solution. • Transfer spin column to new 1.5 ml collection tube and add 80 μl of elution solution to the column. Allow 1 minute for saturation of the membrane and then centrifuge for 2 minutes to complete the RNA elution. • Quantify the quantity of RNA and store at −20 C° until use (no more than 1 month)
The genes tested were: • Cannabinoid receptor 1 (CB1(CNR1)) • Cannabinoid receptor 2 (CB2 (CNR2)) • Fatty acid amide hydrolase (FAAH) • Monoacylglycerol lipase (MGLL, i.e., MAGL) • Peroxisome proliferator-activated receptor gamma (PPARG) • Nuclear factor kappa-light-chain-enhancer of activated B cells (NFκβ) • Interleukin 1 Alpha (IL1alpha) • Cyclooxygenase 1 (PTGS1, i.e., COX1) • Transient receptor potential cation channel subfamily A member 1 (TRPA1) • Transient receptor potential cation channel subfamily V member 1 (TRPV1) • Transient receptor potential cation channel subfamily M member 8 (TRPM8) • Hemoglobin Subunit Beta (HBB) REFERENCE GENE • Ribosomal Protein L13a (RPL13A) REFERENCE GENE […]

[1] = human skin fibroblasts, 10 uM, 24 hr

For `CC(C)[C@]12O[C@H]1[C@@H]1O[C@]13[C@]1(O[C@H]1C[C@H]1C4=C(CC[C@@]13C)C(=O)OC4)[C@@H]2O` [Triptolide], the fold induction at 10 µM [1] was 10.1.

With `CCCCCCCCCCCCCCCC(=O)NCCO` [N-palmitoylethanolamide] the “CNR2↑ gene expression, fold increase or decrease vs untreated cells” value [1] was 3.9 fold.

In the case of `C=C(C)[C@@H]1CCC(C)=C[C@H]1c1c(O)cc(CCCCC)cc1O` [CBD, cannabidiol, reference compound], the fold induction at 10 µM (Homo sapiens, 24 h) was 1.7.
